These results are taken from PubChem BioAssay AID179 (DTP/NCI, 2004).

For this assay, the system named is CEM cells HIV-1 protection, formazan growth assay. As to the kind of experiment: NCI AIDS Antiviral Assay. The note with it: for IC50: measured here: growth of uninfected CEM cells. In a few lines:
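Steps: treat uninfected and HIV-1-infected human CEM cells at five drug levels; quantify growth by soluble formazan; retest any compound reaching 50% protection; classify actives from the retest.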

“And” between values parts separate entries of the source, which are not always exact repeats. Identical values can stand only once. The source made the active and inactive calls.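 Rule for the calls: active = compounds giving half or more protection of infected cells from virus-caused growth loss, again on retest; inactive = the rest.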 Where a SMILES comes first, the peptide text is derived from it. Bridges are numbered along the chain shown (N, C = ends). Roman numbers before positions name the chains, in order. The star is where a group is joined. Cbz = O=C(OCc1ccccc1)* Bounds are passed on as bounds.

Usually EC50 stands for the midpoint of the concentration-response curve. As a reminder, the IC50 is the concentration at which inhibition is half-maximal. Lower therefore signals greater potency. For the compound `CC(C)(C)[Si](C)(C)OC[C@@H](NC(=O)OCc1ccccc1)C(=O)O`, the EC50 was above 200 µM and the IC50 was above 200 µM. `CCOP(C)(=O)C(N)Cc1ccc(OC)c(OC)c1` (configuration not stated): the EC50 was above 200 µM and the IC50 is above 200 µM. For `Cc1cccc2c1CC1(Cc3c(C)cccc3C1=O)C2=O`, the EC50 is above 200 µM and the IC50 was above 200 µM.

Take `O=C(O)c1ccc2c[n+]3ccccc3cc2c1`: the EC50 is above 427 µM and the IC50 is above 427 µM. On to `Nc1ccccc1/C=C1/Sc2cc[nH]c2C1=O`, for which the EC50 is above 63.1 µM and the concentration for half-maximal inhibition (IC50) was above 63.1 µM. Take `C/C(CCn1[nH]c(=O)ccc1=O)=N\N=C(N)N`: the EC50 was above 4.37 µM and the IC50 was above 4.37 µM. Regarding `CC1(C)Cc2c(C#N)c(N)c3c(c2CO1)C(=O)OC3=O`, the EC50 was above 19.1 µM and the IC50 is above 19.1 µM. As for `COC(=O)C1=C(O)c2ccc(Cl)cc2S(=O)(=O)N1C`, the EC50 was above 200 µM and the IC50 turned out to be 87.1 µM. `CSc1c(C)n([O-])c2cc(Cl)c(Cl)cc2[n+]1=O`: the EC50 is above 100 µM and the concentration for half-maximal inhibition (IC50) came out at 2.82 µM. For `CN1CCN(CCSc2nnc(-c3cc4ccccc4s3)c3ccccc23)CC1`, in that order: above 162 µM and 12.9 µM.

For `N#CC1=C(N)N(c2ccccc2)C(c2ccccc2)C1(C#N)C#N` (configuration not stated), the EC50 is above 200 µM and the 50% inhibitory concentration (IC50) was found to be 14.1 µM. As for `CCCN(CCCC(NC(C)=O)C(=O)NCc1ccccc1)C(=O)N(CCCl)N=O` (configuration not stated), the result was inactive.

Take `CC(=O)c1cccc(C)c1C(=O)O`: the outcome was inactive. For `Cc1ccc(C(=O)O)c(O)c1`, the EC50 is above 1620 µM and the IC50 amounted to 1050 µM. In the case of `O=[N+]([O-])c1ccc(/C=C/c2ccc(/C=C/c3ccc([N+](=O)[O-])cc3[N+](=O)[O-])cc2)c([N+](=O)[O-])c1`, the result was inactive. As to `Cc1cc(-n2c(/C=C/c3ccc(Cl)cc3)nc3cc(Cl)ccc3c2=O)on1`, the EC50 was above 50.1 µM and the IC50 is above 50.1 µM. As to `N#C/C(=C\c1ccc2ccccc2c1)c1ccccc1`, the EC50 is above 14.8 µM and the half-maximal inhibitory concentration (IC50) is above 14.8 µM.

Turning to `COc1ccc(N2C(=O)C3c4[nH]c5c(C)cccc5c4C4CCC(c5ccccc5)CC4C3C2=O)cc1` (configuration not stated), the EC50 is above 200 µM and the IC50 stood at 60.3 µM. Turning to `O=C1CSC(c2ccccc2[N+](=O)[O-])N1c1ccc(-n2c(-c3ccccc3)nc3ccccc3c2=O)cc1` (configuration not stated), the EC50 was above 200 µM and the IC50 was found to be 126 µM. As for `CCOC(=O)C(Cc1ccc(O)cc1)NC(=O)C(CSSCC(NC(=O)OCc1ccccc1)C(=O)NC(Cc1ccc(O)cc1)C(=O)OCC)NC(=O)OCc1ccccc1` (stereo not drawn) (I: Cbz-Cys-Tyr-OEt / II: Cbz-Cys-Tyr-OEt; disulfide I:1-II:1; configuration not given here), the EC50 is above 100 µM and the half-inhibitory concentration (IC50) came out at 15.5 µM. Regarding `C=CCC1C(=O)Nc2cccc3ncn(c23)C1=O` (configuration not stated), the EC50 was above 200 µM and the IC50 is 186 µM. For the compound `C1=CN2CCCN3C=CC=c4ccc(c2c43)=C1`, the EC50 is above 200 µM and the IC50 was determined as 110 µM. With `CN(C)CCSc1nc(-c2cccs2)c2ccccc2n1`, the EC50 is above 115 µM and the IC50 was 26.3 µM. As to `FC(F)(F)C(C1=NC(C(F)(F)F)(C(F)(F)F)N=C(N2CCOCC2)O1)C(F)(F)F`, the EC50 was above 2 µM and the 50% inhibitory concentration (IC50) is above 2 µM. Take `CCCCCCCC1(N=[N+]=[N-])C(=O)Nc2ccccc2C1=O` (configuration not stated): the EC50 was above 200 µM and the IC50 amounted to 20 µM.

With `O=C1c2ccccc2C2(c3ccc(F)cc3)NCCN12` (configuration not stated), the EC50 is above 200 µM and the IC50 was 186 µM. For `COc1ccc(C2OC(N)=C(C#N)C3=C2CCCC3C)cc1OC` (configuration not stated), the EC50 is above 200 µM and the 50% inhibitory concentration (IC50) is above 200 µM. For the compound `CC/C(=N/O)c1ccc(Br)s1`, the outcome was inactive. Turning to `N#CC1C2C=CC(CCC2)C1C#N` (configuration not stated), the EC50 was above 200 µM and the IC50 is above 200 µM. Regarding `O=c1[nH]c(=O)n(C2OC(CO)C(O)C2O)cc1Oc1ccccc1` (configuration not stated), the EC50 was above 200 µM and the concentration for half-maximal inhibition (IC50) is above 200 µM. On to `Cc1c2sc3ccccc3[nH]c2nc2[nH]c3ccccc3sc12`, for which the EC50 is above 38 µM and the half-maximal inhibitory concentration (IC50) was found to be 14.8 µM. On the same counts, the results for `O=C(CCCN1CCC2(CC1)CC(=O)N(N1CCOCC1)C2=O)c1ccc(F)cc1` are above 200 µM and above 200 µM. In the case of `CC(C)=CCC[C@@H](C)C1=C(Nc2ccccc2)C(O)=C(C)C(=O)C1=O`, the EC50 is above 200 µM and the IC50 came to 3.02 µM. For the compound `NS(=O)(=O)c1ccc(NC(=O)c2cccnc2Nc2cccc(Cl)c2)cc1`, the result was inactive. Consider `CCOC(=O)C1C(C)C2(C#N)C(=N)OC1(C)C2(C#N)C#N` (configuration not stated), for which the EC50 was above 200 µM and the IC50 stood at 83.2 µM. Consider `Cc1nc2c(N)c3nc(C)n(N)c(=O)c3cc2c(=O)n1N`, for which the EC50 is above 2.14 µM and the IC50 is above 2.14 µM.

Consider `Oc1ccccc1-n1nc2ccc3nonc3c2n1`, for which the EC50 was above 200 µM and the IC50 is above 200 µM. With `O=C(O)c1ccc(CS(=O)(=O)c2ccccc2)cc1`, the EC50 was above 912 µM and the 50% inhibitory concentration (IC50) was above 912 µM. For `CCOC(=O)c1cc2c(OC(C)=O)ccc(OC(C)=O)c2s1`, the EC50 is above 2 µM and the IC50 is 0.0794 µM. On to `CC(=O)SSC12CC3CC(CC(C3)C1)C2`, for which the EC50 is above 200 µM and the IC50 is above 200 µM.

On to `Cc1ccc(S(=O)(=O)c2ccc([N+](=O)[O-])o2)cc1`, for which the EC50 was 0.02 µM and the IC50 was 0.0631 µM. In the case of `COC(=O)CC1c2ccccc2N2C(=O)Cc3c([nH]c4ccccc34)C12` (configuration not stated), the EC50 was above 200 µM and the IC50 was determined as 191 µM. As for `O=C1C2=C(c3ccccc31)C(c1ccccc1)N1C(=O)CSC1=N2` (configuration not stated), the EC50 is above 77.6 µM and the IC50 was 34.7 µM. Turning to `Cc1cc(=O)n2nc(SCc3ccccc3)sc2n1`, the EC50 was above 200 µM and the half-maximal inhibitory concentration (IC50) is 81.3 µM. In the case of `COc1ccc(NC(=S)N/N=C/c2cccc(C)n2)cc1`, the EC50 was above 200 µM and the IC50 worked out at 4.9 µM. For the compound `COc1ccc(C2=CC3CCC2C3)cc1` (configuration not stated), the result was inactive. As to `Cn1cc(C2NC(=O)c3ccccc3N2)c2ccccc21` (configuration not stated), the EC50 was above 200 µM and the IC50 was 0.117 µM. For `O=C(CSc1nnc(Cc2ccccc2)o1)Nc1cccc([N+](=O)[O-])c1`, in that order: above 97.7 µM and above 97.7 µM. Consider `C/C(=N/OC(=O)N(C)C)c1cc(Cl)ccc1Cl`, for which the EC50 is above 200 µM and the IC50 came out at 135 µM. On the same counts, the results for `CCOC(=O)N(NC(=O)NC(C)C)c1ccccc1` are above 200 µM and above 200 µM. Regarding `Cc1cc(=O)oc2cc(O)ccc12`, the EC50 was above 741 µM; the IC50 is 191 µM and > 200 µM. As for `O=C1CCCCC/C1=C\c1ccc(Cl)cc1`, the EC50 is above 200 µM and the IC50 stood at 27.5 µM. In the case of `Cn1c(COC(=O)NC2CCCCC2)c(COC(=O)NC2CCCCC2)c2ccc3ccccc3c21`, the EC50 was above 174 µM and the 50% inhibitory concentration (IC50) came to 2.82 µM. For the compound `Cc1nc2ccccc2c(C)[n+]1[O-]`, the EC50 was above 200 µM and the IC50 is above 200 µM.
